Assay results reported in article PMC10763615, “Identification and engineering of potent cyclic peptides with selective or promiscuous binding through biochemical profiling and bioinformatic data analysis” (RSC Chemical Biology, 2023).
Like-named read-outs stand apart in the source and are kept apart here. Positions of bridges follow the written chain, without caps; N, C: chain ends. Residues, ends and D or L forms follow the SMILES beside them. No end group written: not given here.

Assays:
Type in all cases: binding
FGF-R1C ECD = biological target: T1, FGF-R1C ECD (Homo sapiens, UniProt P11362); test: biochemical; set-up: DNA constructs for the extracellular domain (ECD) of human FGF-; HPC4 (C); made in house; host or cells: HEK 293-6E
T1 sequence (P11362 22-376 limits assumed): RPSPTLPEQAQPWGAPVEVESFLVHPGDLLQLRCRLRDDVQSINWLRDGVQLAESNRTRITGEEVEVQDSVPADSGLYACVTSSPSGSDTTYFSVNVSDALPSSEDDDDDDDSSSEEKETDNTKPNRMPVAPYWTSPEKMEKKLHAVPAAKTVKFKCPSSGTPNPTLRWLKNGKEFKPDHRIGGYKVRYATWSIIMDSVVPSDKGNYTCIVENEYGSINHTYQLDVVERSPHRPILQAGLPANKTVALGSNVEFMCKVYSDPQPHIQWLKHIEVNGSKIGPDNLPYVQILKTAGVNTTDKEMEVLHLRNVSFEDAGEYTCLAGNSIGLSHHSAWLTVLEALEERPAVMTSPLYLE
Procedure, shortened: (§1)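 Biotinylated FGF-R ECD on streptavidin biosensors was dipped into ~1 μM crude peptide in PBS pH7.4 with 0.05% Tween-20 and 0.01% BSA for association, then into buffer for dissociation, and followed by BLI. Fitted KD values were adjusted for peptide concentration measured by UPLC-CAD.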

FGF-R3C ECD = biological target: T2, FGF-R3C ECD (Homo sapiens, UniProt P22607); test: biochemical; set-up: DNA constructs for the extracellular domain (ECD) of human FGF-; HPC4 (C); made in house; host or cells: HEK 293-6E
T2 sequence (P22607 23-375 limits assumed): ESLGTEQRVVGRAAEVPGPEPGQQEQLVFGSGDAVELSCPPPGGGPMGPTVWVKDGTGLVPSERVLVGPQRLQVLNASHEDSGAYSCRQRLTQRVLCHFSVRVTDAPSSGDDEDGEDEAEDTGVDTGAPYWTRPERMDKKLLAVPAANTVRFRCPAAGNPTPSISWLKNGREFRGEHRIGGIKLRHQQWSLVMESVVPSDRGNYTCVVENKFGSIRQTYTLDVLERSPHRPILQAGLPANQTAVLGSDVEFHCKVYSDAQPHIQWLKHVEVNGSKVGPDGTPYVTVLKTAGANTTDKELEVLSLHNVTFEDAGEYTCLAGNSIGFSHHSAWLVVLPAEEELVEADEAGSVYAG
Procedure, shortened: as §1

FGF-R4 ECD = biological target: T3, FGF-R4 ECD (Homo sapiens, UniProt P22455); test: single concentration BLI of crude peptides
T3 construct: DNA constructs for the extracellular domain (ECD) of human FGF-; HPC4 (C); made in house; host or cells: HEK 293-6E
T3 sequence (P22455 22-369 limits assumed): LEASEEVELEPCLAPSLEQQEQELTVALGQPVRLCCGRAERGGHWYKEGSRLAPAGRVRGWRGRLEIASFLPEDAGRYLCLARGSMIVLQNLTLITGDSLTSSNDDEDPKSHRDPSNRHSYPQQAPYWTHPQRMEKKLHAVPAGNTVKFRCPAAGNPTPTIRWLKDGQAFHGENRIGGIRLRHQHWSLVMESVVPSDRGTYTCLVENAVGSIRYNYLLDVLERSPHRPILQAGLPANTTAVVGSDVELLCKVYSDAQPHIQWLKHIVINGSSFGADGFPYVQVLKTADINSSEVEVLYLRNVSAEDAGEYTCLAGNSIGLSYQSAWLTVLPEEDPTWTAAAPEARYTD
Procedure, shortened: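 Streptavidin biosensors carrying biotinylated FGF receptor ECD were immersed in peptide (~1 μM for crude single-point runs, a concentration series for purified peptides) and then in peptide-free buffer. KD was obtained by fitting the BLI association and dissociation curves.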

[1] = crude NNK peptides, single concentration BLI (Table S3), read-out: KD (4)
[2] = crude T18 selection 1 (1:1:1) peptides, single concentration BLI (Table S4), read-out: KD (4)

Compound: CC[C@H](C)[C@@H]1NC(=O)[C@H](CCCCN)NC(=O)[C@H](Cc2ccc(O)cc2)NC(=O)[C@H](CC(C)C)NC(=O)[C@H]([C@@H](C)CC)NC(=O)[C@H]([C@@H](C)CC)NC(=O)[C@H](CC(N)=O)NC(=O)[C@@H](NC(=O)[C@H](CCSC)NC(C)=O)CSSC[C@@H](C(=O)NCC(=O)N[C@@H](CO)C(=O)NCC(=O)N[C@@H](CO)C(=O)N[C@@H](CC(=O)O)C(=O)N[C@@H](Cc2ccc(O)cc2)C(=O)N[C@@H](CCCCN)C(=O)N[C@@H](CC(=O)O)C(=O)N[C@@H](CC(=O)O)C(=O)N[C@@H](CC(=O)O)C(=O)N[C@@H](CC(=O)O)C(=O)N[C@@H](CCCCN)C(N)=O)NC(=O)[C@H](CCCNC(=N)N)NC(=O)[C@H](CC(N)=O)NC(=O)[C@H](CCCCN)NC(=O)[C@H](CCSC)NC1=O (Ac-MCNIILYKIMKNRCGSGSDYKDDDDK-NH2; disulfide 2-14)
- Kd (FGF-R1C ECD): > 10 µM
- Kd (FGF-R3C ECD): > 10 µM
- Kd (FGF-R4 ECD; [1]): > 10 µM

Compound: GSGSDYKDDDDK-NH2 [flag, reference compound]
- Kd (FGF-R1C ECD): > 10 µM
- Kd (FGF-R3C ECD): > 10 µM
- Kd (FGF-R4 ECD): > 10 µM

Compound: CSCC[C@H](NC(C)=O)C(=O)N[C@H]1CSSC[C@@H](C(=O)NCC(=O)N[C@@H](CO)C(=O)NCC(=O)N[C@@H](CO)C(=O)N[C@@H](CC(=O)O)C(=O)N[C@@H](Cc2ccc(O)cc2)C(=O)N[C@@H](CCCCN)C(=O)N[C@@H](CC(=O)O)C(=O)N[C@@H](CC(=O)O)C(=O)N[C@@H](CC(=O)O)C(=O)N[C@@H](CC(=O)O)C(=O)N[C@@H](CCCCN)C(N)=O)NC(=O)[C@H](Cc2ccc(O)cc2)NC(=O)[C@H](Cc2c[nH]c3ccccc23)NC(=O)[C@H](CC(N)=O)NC(=O)[C@H](CCCNC(=N)N)NC(=O)[C@H](CC(=O)O)NC(=O)[C@H](CC(C)C)NC(=O)[C@H](CCCNC(=N)N)NC(=O)[C@H](Cc2ccc(O)cc2)NC(=O)[C@H](CCCCN)NC(=O)[C@H](Cc2c[nH]c3ccccc23)NC(=O)[C@H](C(C)C)NC1=O (Ac-MCVWKYRLDRNWYCGSGSDYKDDDDK-NH2; disulfide 2-14)
- Kd (FGF-R1C ECD): 0.078 µM
- Kd (FGF-R3C ECD): > 10 µM
- Kd (FGF-R4 ECD; [2]): 2.04 µM

Compound: CC[C@H](C)[C@@H]1NC(=O)[C@H](CCC(=O)O)NC(=O)[C@H](Cc2ccc(O)cc2)NC(=O)[C@H](CCC(=O)O)NC(=O)[C@H](CCCCN)NC(=O)[C@@H](NC(=O)[C@H](CCSC)NC(C)=O)CSSC[C@@H](C(=O)NCC(=O)N[C@@H](CO)C(=O)NCC(=O)N[C@@H](CO)C(=O)N[C@@H](CC(=O)O)C(=O)N[C@@H](Cc2ccc(O)cc2)C(=O)N[C@@H](CCCCN)C(=O)N[C@@H](CC(=O)O)C(=O)N[C@@H](CC(=O)O)C(=O)N[C@@H](CC(=O)O)C(=O)N[C@@H](CC(=O)O)C(=O)N[C@@H](CCCCN)C(N)=O)NC(=O)[C@H](Cc2ccc(O)cc2)NC(=O)[C@H](CCC(N)=O)NC(=O)[C@H](CC(C)C)NC(=O)[C@H](CCCCN)NC(=O)[C@H](Cc2ccc(O)cc2)NC(=O)[C@H](Cc2c[nH]c3ccccc23)NC(=O)[C@H](CC(C)C)NC1=O (Ac-MCKEYEILWYKLQYCGSGSDYKDDDDK-NH2; disulfide 2-15)
- Kd (FGF-R1C ECD): > 10 µM
- Kd (FGF-R3C ECD): > 10 µM
- Kd (FGF-R4 ECD; [2]): 0.017 µM

Compound: CSCC[C@H](NC(C)=O)C(=O)N[C@H]1CSSC[C@@H](C(=O)NCC(=O)N[C@@H](CO)C(=O)NCC(=O)N[C@@H](CO)C(=O)N[C@@H](CC(=O)O)C(=O)N[C@@H](Cc2ccc(O)cc2)C(=O)N[C@@H](CCCCN)C(=O)N[C@@H](CC(=O)O)C(=O)N[C@@H](CC(=O)O)C(=O)N[C@@H](CC(=O)O)C(=O)N[C@@H](CC(=O)O)C(=O)N[C@@H](CCCCN)C(N)=O)NC(=O)[C@H](Cc2c[nH]c3ccccc23)NC(=O)[C@H](CCC(N)=O)NC(=O)[C@H](CCCCN)NC(=O)[C@H](Cc2c[nH]c3ccccc23)NC(=O)[C@H](CC(C)C)NC(=O)[C@H](CC(C)C)NC(=O)[C@H](Cc2ccccc2)NC(=O)[C@H](CC(C)C)NC(=O)[C@H](CCCCN)NC(=O)[C@H](Cc2ccc(O)cc2)NC1=O (Ac-MCYKLFLLWKQWCGSGSDYKDDDDK-NH2; disulfide 2-13)
- Kd (FGF-R1C ECD): > 10 µM
- Kd (FGF-R3C ECD): > 10 µM
- Kd (FGF-R4 ECD; [1]): > 10 µM

Compound: CC[C@H](C)[C@@H]1NC(=O)[C@H](Cc2c[nH]c3ccccc23)NC(=O)[C@H](Cc2c[nH]c3ccccc23)NC(=O)[C@H](CCCNC(=N)N)NC(=O)[C@H](C)NC(=O)[C@H](Cc2ccc(O)cc2)NC(=O)[C@H](CCC(N)=O)NC(=O)[C@H](C)NC(=O)[C@H](CCCNC(=N)N)NC(=O)[C@H]([C@@H](C)CC)NC(=O)[C@H](CO)NC(=O)[C@H](CC(=O)O)NC(=O)[C@@H](NC(=O)[C@H](CCSC)NC(C)=O)CSSC[C@@H](C(=O)NCC(=O)N[C@@H](CO)C(=O)NCC(=O)N[C@@H](CO)C(=O)N[C@@H](CC(=O)O)C(=O)N[C@@H](Cc2ccc(O)cc2)C(=O)N[C@@H](CCCCN)C(=O)N[C@@H](CC(=O)O)C(=O)N[C@@H](CC(=O)O)C(=O)N[C@@H](CC(=O)O)C(=O)N[C@@H](CC(=O)O)C(=O)N[C@@H](CCCCN)C(N)=O)NC1=O (Ac-MCDSIRAQYARWWICGSGSDYKDDDDK-NH2; disulfide 2-15)
- Kd (FGF-R1C ECD): > 10 µM
- Kd (FGF-R3C ECD): > 10 µM
- Kd (FGF-R4 ECD; [2]): 0.183 µM

Compound: CSCC[C@H](NC(C)=O)C(=O)N[C@H]1CSSC[C@@H](C(=O)NCC(=O)N[C@@H](CO)C(=O)NCC(=O)N[C@@H](CO)C(=O)N[C@@H](CC(=O)O)C(=O)N[C@@H](Cc2ccc(O)cc2)C(=O)N[C@@H](CCCCN)C(=O)N[C@@H](CC(=O)O)C(=O)N[C@@H](CC(=O)O)C(=O)N[C@@H](CC(=O)O)C(=O)N[C@@H](CC(=O)O)C(=O)N[C@@H](CCCCN)C(N)=O)NC(=O)[C@H](Cc2ccc(O)cc2)NC(=O)[C@H](C(C)C)NC(=O)[C@H](Cc2ccc(O)cc2)NC(=O)[C@H](Cc2c[nH]c3ccccc23)NC(=O)[C@H](CO)NC(=O)[C@H](CCCCN)NC(=O)[C@H](Cc2c[nH]cn2)NC(=O)[C@H](Cc2ccc(O)cc2)NC(=O)[C@H](Cc2ccc(O)cc2)NC(=O)[C@H](Cc2ccccc2)NC(=O)[C@H](Cc2c[nH]c3ccccc23)NC(=O)[C@H](CCC(=O)O)NC1=O (Ac-MCEWFYYHKSWYVYCGSGSDYKDDDDK-NH2; disulfide 2-15)
- Kd (FGF-R1C ECD): 0.191 µM
- Kd (FGF-R3C ECD): > 10 µM
- Kd (FGF-R4 ECD; [2]): > 10 µM

Compound: CSCC[C@H](NC(C)=O)C(=O)N[C@H]1CSSC[C@@H](C(=O)NCC(=O)N[C@@H](CO)C(=O)NCC(=O)N[C@@H](CO)C(=O)N[C@@H](CC(=O)O)C(=O)N[C@@H](Cc2ccc(O)cc2)C(=O)N[C@@H](CCCCN)C(=O)N[C@@H](CC(=O)O)C(=O)N[C@@H](CC(=O)O)C(=O)N[C@@H](CC(=O)O)C(=O)N[C@@H](CC(=O)O)C(=O)N[C@@H](CCCCN)C(N)=O)NC(=O)[C@H](CO)NC(=O)[C@H](Cc2c[nH]cn2)NC(=O)[C@H](Cc2ccccc2)NC(=O)[C@H](CC(C)C)NC(=O)[C@H](CCCCN)NC(=O)[C@H](Cc2ccc(O)cc2)NC(=O)[C@H](Cc2ccc(O)cc2)NC(=O)[C@H](CC(C)C)NC(=O)[C@H](CC(C)C)NC(=O)[C@H](Cc2c[nH]cn2)NC1=O (Ac-MCHLLYYKLFHSCGSGSDYKDDDDK-NH2; disulfide 2-13)
- Kd (FGF-R1C ECD): 0.063 µM
- Kd (FGF-R3C ECD): > 10 µM
- Kd (FGF-R4 ECD; [2]): 0.114 µM

Compound: CC[C@H](C)[C@@H]1NC(=O)[C@H](Cc2ccc(O)cc2)NC(=O)[C@H](C)NC(=O)[C@H](CC(C)C)NC(=O)[C@H](Cc2c[nH]c3ccccc23)NC(=O)[C@@H](NC(=O)[C@H](CCCCN)NC(=O)[C@@H](NC(=O)[C@H](CCSC)NC(=O)[C@H](CCSC)NC(C)=O)C(C)C)CSSC[C@@H](C(=O)NCC(=O)N[C@@H](CO)C(=O)NCC(=O)N[C@@H](CO)C(=O)N[C@@H](CC(=O)O)C(=O)N[C@@H](Cc2ccc(O)cc2)C(=O)N[C@@H](CCCCN)C(=O)N[C@@H](CC(=O)O)C(=O)N[C@@H](CC(=O)O)C(=O)N[C@@H](CC(=O)O)C(=O)N[C@@H](CC(=O)O)C(=O)N[C@@H](CCCCN)C(N)=O)NC(=O)[C@H]([C@@H](C)O)NC(=O)[C@H](CCCNC(=N)N)NC1=O (Ac-MMVKCWLAYIRTCGSGSDYKDDDDK-NH2; disulfide 5-13)
- Kd (FGF-R1C ECD): > 10 µM
- Kd (FGF-R3C ECD): > 10 µM
- Kd (FGF-R4 ECD; [1]): > 10 µM
